Assays:
[1] = system: naturally occurring bacteria; assay: Aerobic colony count in smoked beef shoulder pastrami; conditions: pastrami stored at 4° C. for three months; amount equivalent to 150 ppm sodium nitrite; plates 30° C. 24 hr
Description: Aerobic colony count of naturally occurring bacteria in smoked beef shoulder pastrami: 5 gr of the pastrami manufactured in a meat factory as described above were homogenized in a sterile grinder with 45 ml of sterile saline, then further diluted with saline. The diluents were plated on BHI agar plates and incubated at 30° C. for 24 hr then colonies were counted and CFU calculated.

[2] = Effect on the color of the meat (Hunter L*, a*, b*, colorimeter); set-up: species or system beef; conditions: aerobic conditions, period of 24 h
Description: Nitrite is known to be responsible for the characteristic pink color associated with cured meat products and flavor stabilization. The color development and color stability of ground beef treated S-nitroso-cysteine and S-nitroso-N-acetylcysteine after heating to 72° C. was compared to the color of ground beef treated with nitrite. A portable colorimeter (X-rite) was used to measure Hunter color lightness, redness and yellowness (L*, a*, b*) values of ground beef samples treated with the different additives and heated in a microwave oven (Dow, S-Korea, at 800 W) to 72° C. in the center. The instrument was standardized using white and black standard plates.

[3] = system: naturally occurring bacteria; assay: Aerobic colony count in ground beef shoulder; conditions: 2.5 mM preservative; for bacteria count (aerobic colony count): after 1 week of storage at 4° C.; for bacteria concentration (aerobic colony count): after 4 weeks at 4° C.
Description: 10 gr of ground beef shoulder was mixed with 1 ml (25 mM) aqueous solution of the tested preservative (Sodium nitrite, S-nitroso-cysteine and S-nitroso-N-acetylcysteine) or DDW for control and 1 ml of NaCl solution (10% w/v). The final concentrations were 2.5 mM preservative (where Kg meat=L) and 1% (w/w) NaCl. The meat was divided to 1 gr portions and placed in open vacuum bags, then heated in a water bath at 75° C. for 15 min and sealed by […] C100 at a vacuum of 8 mbar. The bags were transferred to 4° C. for cooling and storage. After time periods of 1 hr, 1 week and 4 weeks elapsed, the bags were opened in a hood and 1 gr of meat was homogenized in a sterile grinder with 9 ml of sterile saline, then the homogenate was diluted further with saline and the diluents were plated on BHI agar plates. The plates were incubated at 30° C. for 24 hours then colonies were counted and CFU calculated.

[4] = Formation of N-nitroso-N-methylaniline from N-methylaniline with nitrosilating agent (2.5 mM) in citrate buffer at 37° C.; conditions: 2.5 mM agent, 2.5 mM N-methylaniline, pH 6.2
Description: The HPLC separation was performed on a Merck/Hitachi HPLC system consisting of a LaChrom L 7100 pump and a LaChrom DAD L 7450 detector. The system was operated with a data processor working with a LaChrom interface D 7000 and the EZChrom Elite 3.3.1 software. The mixture was separated on a Kinetex EVO C18 column (250×4.6 mm, 5 μm) using a gradient elution system, solvent A was 5% acetonitrile in water (v/v) and B was acetonitrile. Gradient conditions were initial=0% B, 25 min=70% B and 30 min=100% B. The flow rate was constant at 1.0 mL min^−1. The injection loop volume was 20 μL, absorbance was monitored at 272 nm.
The experiment of Example 1 was repeated with a tenfold increase of concentration of the reactants. That is, reaction mixtures were prepared by mixing in citrate buffer, at pH=3.0 and at pH=6.2, N-methylaniline (2.5 mM) and NaCl (2.5 mM) together with an equimolar amount of the tested nitrosilating agent, used either alone or in combination with ascorbic acid, as set out below: […]

SMILES	aerobic colony count (concentration of bacteria) [1]	color stability (ΔE*) over time [2]	bacteria count (aerobic colony count) [3]	bacteria concentration (aerobic colony count) [3]	kinetics of N-nitroso-methylaniline formation (UV absorbance at 270 nm versus time) [4]
O=NO [sodium nitrite]	8*10^3 CFU/ml	decreased over time	5.8*10^3 cfu/ml	~10^8	–
N[C@@H](CSN=O)C(=O)O [S-nitroso-cysteine, S-nitrosocysteine]	–	–	~2.0*10^2 cfu/ml	lower bacteria concentration	reacts rapidly with N-methylaniline to produce progressively increasing amounts of nitrosamine
CC(=O)N[C@@H](CSN=O)C(=O)O [S-nitroso-N-acetylcysteine]	7*10^3 CFU/ml	remained stable	~2.0*10^2 cfu/ml	lower bacteria concentration	significantly lesser

Reference: patent US11632972B2, “S-nitrosothiol compounds and their combinations with nitrosamine blocking agents for safe food preservation” (YISSUM RESEARCH DEVELOPMENT COMPANY OF THE HEBREW …, priority 2017, dated 2023)
